Assay [1] deals with MYB mRNA. The assay is described as follows: Splicing RT-qPCR assay, MYB canonical (CJ) and alternative (AJ) junction mRNA. In kind it is cell-based, human. Particulars: Homo sapiens, A673 or K562 cells, 24 hours compound treatment, RT-qPCR; for AC50: read-out: MYB AJ (AC50, increase in alternative junction mRNA); for IC50: read-out: MYB CJ (IC50, decrease in canonical junction mRNA). The essentials:
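Canonical (CJ) and alternative-exon (AJ) junction mRNAs quantified by one-step RT-qPCR in cell lysates, normalized to housekeeping PPIA for A673 and GAPDH or GUSB for K562. Cells were exposed 24 h at 37 °C to 11-point 3-fold compound series from 10 uM final, with DMSO at or below 0.25%.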

Assay [2] relates to HTT. The assay is described as follows: Protein abundance, HiBit-assay system (Promega), HTT. In kind it is cell-based. To be noted: Table 6; HiBiT-modified K562 cells, 24 hours. An excerpt:
(§1) In some embodiments, a compound of Formula (I) or (II) or a pharmaceutically acceptable salt thereof, e.g., as described herein, modulates the expression of a target protein (e.g., HTT or MYB) in a reference cell or sample. In an embodiment, a compound of Formula (I) or (II) or a pharmaceutically acceptable salt thereof, e.g., as described herein, increases the expression of a target protein (e.g., HTT or MYB) in a reference cell or sample. In an embodiment, a compound of Formula (I) or (II) or a pharmaceutically acceptable salt thereof, e.g., as described herein, decreases the expression of a target protein (e.g., HTT or MYB) in a reference cell or sample. The effect of an exemplary compound of Formula (I) or (II) on protein abundance may be measured using a standard assay for measuring protein abundance, such as the HiBit-assay system (Promega). In this assay, percent response for each respective cell line may be as calculated at each compound concentration as follows: % response=100*(S−PC)/(NC−PC). For the normalized response at each concentration, a four-parameter logistical regression may be fit to the data and the response may be interpolated at the 50% value to determine a concentration for protein abundance at 50% (IC50) an untreated control. In an embodiment, a compound of Formula (I) or (II) or a pharmaceutically acceptable salt thereof, e.g., as described herein, has a protein abundance response less than 100 nM. In an embodiment, a compound of Formula (I) or (II) or a pharmaceutically acceptable salt thereof, e.g., as described herein, has a protein abundance response between 100-1000 nM. In an embodiment, a compound of Formula (I) or (II) or a pharmaceutically acceptable salt thereof, e.g., as described herein, has a protein abundance response greater than 1000 nM. In an embodiment, a compound of Formula (I) or (II) or a pharmaceutically acceptable salt thereof, e.g., as described herein, has a protein abundance response greater than 10 uM. In an embodiment, a compound of Formula (I) or (II) or a pharmaceutically acceptable salt thereof, e.g., as described herein, modulates the protein abundance of a target protein by about 1%, 5%, 10%, 15%, 20%, 25%, 30%, 35%, 40%, 45%, 50%, 55%, 60%, 65%, 70%, 75%, 80%, 85%, 90%, 95%, 99% or more, e.g., compared with a reference compound.
(The HiBiT peptide binds its large partner to form an active luciferase.)

The subject of assay [3] is MYB. Kind of assay: Protein abundance, HiBit-assay system (Promega), MYB. The format is cell-based. To be noted: Table 6; HiBiT-modified K562 cells, 24 hours.
From the text: as §1

Where a name gives a salt, the structure may show the parent alone. Read-outs that look alike come from different tables or passages of the source.

As a reminder, the AC50 is the concentration at which the activity in the assay is half-maximal. As a reminder, the IC50 is the midpoint of a concentration-inhibition curve.

In the case of `CCn1cc2c(N3CCC(N[C@H]4C[C@H](O)C4)CC3)ccc(C(=O)Nc3cc(F)c4nc(C)cn4c3)c2n1` [Compound 560, 2-ethyl-N-{8-fluoro-2-methylimidazo[1,2-a]pyridin-6-yl}-4-(4-{[(1r,3r)-3-hydroxycyclobutyl]amino}piperidin-1-yl) indazole-7-carboxamide], the AC50 in assay [1] (24 h) lay within 0.1 to 1 µM. The IC50 in assay [1] (24 h) was 0.1 to 1 µM; in assay [2], 1 to 10 µM; in assay [3], less than 0.1 µM.
For the molecule `Cc1cn2cc(NC(=O)c3ccc(N4CC[C@@H](N5CCNCC5)C4)c4cn(C)nc34)cc(F)c2n1` [Compound 562, N-{8-fluoro-2-methylimidazo[1,2-a]pyridin-6-yl}-2-methyl-4-[(3R)-3-(piperazin-1-yl)pyrrolidin-1-yl]indazole-7-carboxamide hydrochloride], in assay [1] (24 h), the AC50 was in the range of 1 to 10 µM. The results for the half-maximal inhibitory concentration (IC50) in assay [1] (24 h), in assay [2] and in assay [3] were 1 to 10 µM, greater than 10 µM and greater than 10 µM, respectively.
As for `Cc1cn2cc(NC(=O)c3ccc(N4CC5NC5C4)c4cn(C)nc34)cc(F)c2n1` (stereo not drawn) [Compound 563, 4-{3,6-diazabicyclo[3.1.0]hexan-3-yl}-N-{8-fluoro-2-methylimidazo[1,2-a]pyridin-6-yl}-2-methylindazole-7-carboxamide], the AC50 in assay [1] is less than 0.1 µM. The values for the IC50 in assay [1], in assay [2] and in assay [3] were less than 0.1 µM, 0.1 to 1 µM and less than 0.1 µM, respectively.
`Cc1cn2cc(NC(=O)c3ccc(N4C5CNCC54)c4cn(C)nc34)cc(F)c2n1` (stereo not drawn) [Compound 564, 4-{3,6-diazabicyclo[3.1.0]hexan-6-yl}-N-{8-fluoro-2-methylimidazo[1,2-a]pyridin-6-yl}-2-methylindazole-7-carboxamide]: the AC50 in assay [1] is less than 0.1 µM. Further, the IC50 is less than 0.1 µM in assay [1], 0.1 to 1 µM in assay [2] and 0.1 to 1 µM in assay [3].
On to `CCn1cc2c(N3CCNCC3)ccc(C(=O)Nc3cc(F)c4nc(C)c(F)n4c3)c2n1` [Compound 565, N-{3,8-difluoro-2-methylimidazo[1,2-a]pyridin-6-yl}-2-ethyl-4-(piperazin-1-yl) indazole-7-carboxamide; trifluoroacetic acid], for which the AC50 in assay [1] (24 h) is greater than 10 µM. Also, the IC50 in assay [1] (24 h) is greater than 10 µM; in assay [2], 1 to 10 µM; in assay [3], 1 to 10 µM.
Turning to `CCn1cc2c(N3CCNCC3)ccc(C(=O)Nc3cn4cc(C)nc4c(Oc4ccccc4)n3)c2n1` [Compound 566, 2-ethyl-N-{2-methyl-8-phenoxyimidazo[1,2-a]pyrazin-6-yl}-4-(piperazin-1-yl) indazole-7-carboxamide], the AC50 in assay [1] (24 h) lay within 0.1 to 1 µM. Besides, the figures for the concentration for half-maximal inhibition (IC50) in assay [1] (24 h), in assay [2] and in assay [3] were 0.1 to 1 µM, 1 to 10 µM and 0.1 to 1 µM, respectively.
Take `Cc1cn2cc(NC(=O)c3ccc(N4CC[C@@H](NC56CC(C5)C6)C4)c4cn(C)nc34)cc(F)c2n1` [Compound 568, 4-[(3R)-3-{bicyclo[1.1.1]pentan-1-ylamino}pyrrolidin-1-yl]-N-{8-fluoro-2-methylimidazo[1,2-a]pyridin-6-yl}-2-methylindazole-7-carboxamide]: the AC50 in assay [1] (24 h) lay in the range of 1 to 10 µM. Further, the IC50 in assay [1] (24 h), in assay [2] and in assay [3] was 1 to 10 µM throughout.
For the molecule `CCn1cc2c(N3CCC(NC4CC4)C3)cc(F)c(C(=O)Nc3cc(F)c4nc(C)cn4c3)c2n1` (stereo not drawn) [Compound 569, 4-[3-(cyclopropylamino)pyrrolidin-1-yl]-2-ethyl-6-fluoro-N-{8-fluoro-2-methylimidazo[1,2-a]pyridin-6-yl}indazole-7-carboxamide], in assay [1] (24 h), the AC50 is less than 0.1 µM. In addition, the results for the IC50 in assay [1] (24 h), in assay [2] and in assay [3] were less than 0.1 µM, 1 to 10 µM and less than 0.1 µM, respectively.
With `Cc1cn2cc(NC(=O)c3c(F)cc(N4CC[C@@H](NC5CC5)C4)c4cn(C)nc34)cc(F)c2n1` [Compound 571, 4-[(3R)-3-(cyclopropylamino)pyrrolidin-1-yl]-6-fluoro-N-{8-fluoro-2-methylimidazo[1,2-a]pyridin-6-yl}-2-methylindazole-7-carboxamide], the AC50 in assay [1] (24 h) was less than 0.1 µM. In addition, the IC50 in assay [1] (24 h) was less than 0.1 µM; in assay [2], 0.1 to 1 µM; in assay [3], less than 0.1 µM.
Turning to `Cc1cn2cc(NC(=O)c3ccc(N4CC[C@@H](NCc5cnc(Cl)nc5)C4)c4cn(C)nc34)cc(F)c2n1` [Compound 573, 4-[(3R)-3-{[(2-chloropyrimidin-5-yl)methyl]amino}pyrrolidin-1-yl]-N-{8-fluoro-2-methylimidazo[1,2-a]pyridin-6-yl}-2-methylindazole-7-carboxamide], the AC50 in assay [1] (24 h) lay within 0.1 to 1 µM. Further, the results for the IC50 in assay [1] (24 h), in assay [2] and in assay [3] were 0.1 to 1 µM, greater than 10 µM and 1 to 10 µM, respectively.
For `Cc1cn2cc(NC(=O)c3ccc(N4CCC(C)(NC(C)C)C4)c4cn(C)nc34)cc(F)c2n1` (stereo not drawn) [Compound 574], in assay [1] (24 h), the AC50 fell in the range of 0.1 to 1 µM. Also, the IC50 in assay [1] (24 h) is 0.1 to 1 µM; in assay [2] it was greater than 10 µM; in assay [3], 0.1 to 1 µM.
As for `CCn1cc2c(N3CCNCC3)ccc(C(=O)Nc3cc(F)c4ncccc4c3)c2n1` [Compound 575], the AC50 in assay [1] (24 h) is greater than 10 µM. Besides, the IC50 in assay [1] (24 h) was greater than 10 µM; in assay [2], 1 to 10 µM; in assay [3] it was 1 to 10 µM.

For the origin of these results see patent US20250154169A1, “COMPOUNDS AND METHODS FOR MODULATING SPLICING” (REMIX THERAPEUTICS INC., priority 2021, published 2025).
